Data as given in US20100144853A1, “NOVEL COMBINED ADMINISTRATION” (priority 2008, published 2010).

Columns and labels:
Format in all cases: in vitro ADME
Lipase from Hog Pancreas [1] = assay: Stability of COMPOUND A with Lipase, Procedure C (premix of COMPOUND A and Lipase, then COMPOUND B); settings: 0.55 mg/mL Lipase
Procedure: Procedure C (Premix of COMPOUND A and Lipase, Followed by Addition of COMPOUND B): Remark: Final COMPOUND B concentration: 3 μg/ml 220 μL of drug solution (stock A) and 220 μL of FeSSIF concentrate (Lecithin 37.5 mM and Sodium taurocholate 150 mM) were mixed. At time zero the reaction was started by addition of 1700 μl of Lipase in phosphate buffered saline solution (from stock C to obtain a final enzyme concentration of 0.55 mg/mL). The mixture was incubated at 37° C. and after 5 min, a 200 μL sample was taken for HPLC analysis. Then 60 μL of COMPOUND B solution (stock B) previously diluted 1:10 in phosphate buffered saline solution (corresponds to 100 μg/mL COMPOUND B) was added and as a function of time, samples of 200 μL were taken, diluted immediately with 600 μL of isopropanol and centrifuged for 5 min at 3000 rpm. The supernatant was analyzed by HPLC. 1700 μl of Lipase in phosphate buffered saline solution (from stock C to obtain a final enzyme concentration of 0.55 mg/mL) were mixed with 220 μL of FeSSIF concentrate and at time zero 220 μL of drug solution (stock A) was added. After 7 min of incubation, a 200 μL sample was taken, 60 μL of diluted COMPOUND B solution (stock B) was added and continued as described for the 1st experiment.

Lipase from Hog Pancreas [2] = assay: Stability of COMPOUND A with Lipase, with and without COMPOUND B (Example 1); settings: 0.55 mg/mL (11 U/mL) Lipase
Procedure: (a) FeSSIF (Fed State Simulated Intestinal Fluid) and phosphate buffered saline solution:
(b) Stock A=drug solution (0.5 mg/mL):
5 mg of thioisobutyric acid S-(2-{[1-(2-ethyl-butyl)-cyclohexanecarbonyl]-amino}-phenyl)ester (COMPOUND A) were dissolved in 50 μL ethanol and 950 μL mixed micelles Soybean lecithin/Sodium glycocholate (158/97 mg/mL) in water were added. One part of the mixture was diluted with 9 parts of phosphate buffered saline solution at pH 6.5.
(c) Stock B=esterase inhibitor solution (1.0 mg/mL)
5 mg 1-(3-hexyl-4-oxo-oxetan-2-yl)tridecan-2-yl 2-formyl-amino-4-methyl-pentanoate (COMPOUND B) were dissolved in 250 μL ethanol. 4.75 mL mixed micelles soybean lecithin/sodium glycocholate (30/80.6 mg/mL) were added to give a solution of 1 mg/mL COMPOUND B.
(d) Stock C=Lipase in phosphate buffered saline solution (PBS) pH 6.5 (example given at 24 mg/mL, with a final enzyme activity of about 450 U/mL)
240 mg Lipase (Lipase from Hog Pancreas, 20.6 U/mg Lipase, CAS No. 9001-62-1, Fluka, Art. No. 62300) were weighed into a vial and dissolved by stirring in 10 mL phosphate buffered saline solution pH 6.5. Any undissolved material was removed by centrifugation during 5 min at 5000 rpm. The supernatant was used for the experiments and diluted with PBS to obtain the Lipase at the final concentration of 0.55 mg/mL.
[…] To this, 200 μL of drug solution (stock A) were injected at time zero. The mixture was incubated at 37° C., while mixing gently with a rotating shaker at about 2 rpm. At regular intervals 200 μL samples were taken and diluted immediately with 600 μL of isopropanol. The combined solution/suspension was centrifuged during 5 min at 3000 rpm and the concentration of COMPOUND A as well as its potential degradation products were determined in the supernatant by HPLC analysis.
To obtain the value at time zero, 600 μL of isopropanol were added to 180 μL of a 0.55 mg/mL Lipase in a phosphate buffered saline solution to inhibit the enzymes followed by the addition of 20 μL of drug solution (stock A).

[3] = Stability of COMPOUND A in human intestinal fluids, Procedure F (suspension, no separation of excess), second table; settings: fasted HIF
Procedure: Stimulated Intestinal Fluids: the fluids from 3 different subjects were collected after fasting overnight with a nasojejunal tube and pooled. For the stimulation, twenty minutes before the beginning of the collection, volunteers were provided with chewing-gums and were asked to chew over a 15 minutes period, maintaining the taste by replacing the sticks of gum approximately every 2 minutes.
Procedure F (COMPOUND A and COMPOUND B in suspension, the degradation immediately stopped without separation of excess compound): Stock K=COMPOUND B suspension (0.5 mg/mL)
Dilute 1 part of COMPOUND B suspension (stock J) with 3 parts of FeSSIF pH6.5 solution.
500 μL of freshly thawed intestinal fluids (fasted and stimulated state) were added to 1.2 mg of COMPOUND A in a 1 mL glass vial. The suspended compound was stirred for 15 min at 37° C. to obtain wetting and a homogenous suspension. In parallel, 4 glass vials were prepared with 20 μL of a COMPOUND B suspension at different concentrations. These concentrations were obtained by mixing FeSSIF pH6.5 and COMPOUND B suspension (stock K) in different ratios, respectively 1:[…], 1:1, 0:1 to obtain 0, 1, 2 and 4% related to COMPOUND A. At time zero, 100 μL of COMPOUND A suspension preincubated at 37° C. were added to the 20 μL COMPOUND B suspension. The mixture was incubated at 37° C. with gentle stirring. After 15 min and 60 min, the reaction was stopped by mixing a 50 μL sample with 150 μL isopropanol and centrifuged at 5′000 rpm during 5 min. The clear supernatant was analyzed for the hydrolysis product and its oxidized form by HPLC.

- Concentration of COMPOUND A (Lipase from Hog Pancreas [1]; +3 μg/mL COMPOUND B at T = 5 min, time 0 min): 45.3 µg/mL
- Concentration of COMPOUND A (Lipase from Hog Pancreas [1]; +3 μg/mL COMPOUND B at T = 5 min, time 5 min): 41.5 µg/mL
- Concentration of COMPOUND A (Lipase from Hog Pancreas [1]; +3 μg/mL COMPOUND B at T = 5 min, time 10 min): 39.1 µg/mL
- Concentration of COMPOUND A (Lipase from Hog Pancreas [1]; +3 μg/mL COMPOUND B at T = 5 min, time 15 min): 39.3 µg/mL
- Concentration of COMPOUND A (Lipase from Hog Pancreas [1]; +3 μg/mL COMPOUND B at T = 5 min, time 20 min): 39.1 µg/mL
- Concentration of COMPOUND A (Lipase from Hog Pancreas [1]; +3 μg/mL COMPOUND B at T = 5 min, time 25 min): 39.3 µg/mL
- Concentration of COMPOUND A (Lipase from Hog Pancreas [1]; +3 μg/mL COMPOUND B at T = 5 min, time 30 min): 39.3 µg/mL
- Concentration of COMPOUND A (Lipase from Hog Pancreas [1]; +3 μg/mL COMPOUND B at T = 7 min, time 0 min): 45.3 µg/mL
- Concentration of COMPOUND A (Lipase from Hog Pancreas [1]; +3 μg/mL COMPOUND B at T = 7 min, time 5 min): 40.4 µg/mL
- Concentration of COMPOUND A (Lipase from Hog Pancreas [1]; +3 μg/mL COMPOUND B at T = 7 min, time 10 min): 38.4 µg/mL
- Concentration of COMPOUND A (Lipase from Hog Pancreas [1]; +3 μg/mL COMPOUND B at T = 7 min, time 15 min): 38.2 µg/mL
- Concentration of COMPOUND A (Lipase from Hog Pancreas [1]; +3 μg/mL COMPOUND B at T = 7 min, time 20 min): 37.9 µg/mL
- Concentration of COMPOUND A (Lipase from Hog Pancreas [1]; +3 μg/mL COMPOUND B at T = 7 min, time 25 min): 37.8 µg/mL
- Concentration of COMPOUND A (Lipase from Hog Pancreas [1]; +3 μg/mL COMPOUND B at T = 7 min, time 30 min): 37.9 µg/mL
- Concentration of COMPOUND A (Lipase from Hog Pancreas [2]; +100 μg/mL COMPOUND B, 5 min): 48.2 µg/mL
- Concentration of COMPOUND A (Lipase from Hog Pancreas [2]; +100 μg/mL COMPOUND B, 10 min): 48.2 µg/mL
- Concentration of COMPOUND A (Lipase from Hog Pancreas [2]; +100 μg/mL COMPOUND B, 15 min): 48.2 µg/mL
- Concentration of COMPOUND A (Lipase from Hog Pancreas [2]; +100 μg/mL COMPOUND B, 20 min): 48.0 µg/mL
- Concentration of COMPOUND A (Lipase from Hog Pancreas [2]; +100 μg/mL COMPOUND B, 30 min): 48.3 µg/mL
- Concentration of COMPOUND A (Lipase from Hog Pancreas [2]; +100 μg/mL COMPOUND B, 60 min): 40.1 µg/mL
- Concentration of COMPOUND A (Lipase from Hog Pancreas [2]; time 0 min (column +100 μg/mL COMPOUND B), theoretical 50 μg/mL): 46.9 µg/mL
- Concentration of COMPOUND A (Lipase from Hog Pancreas [2]; w/o COMPOUND B, 5 min): 27.2 µg/mL
- Concentration of COMPOUND A (Lipase from Hog Pancreas [2]; w/o COMPOUND B, 10 min): 14.7 µg/mL
- Concentration of COMPOUND A (Lipase from Hog Pancreas [2]; w/o COMPOUND B, 15 min): 7.3 µg/mL
- Concentration of COMPOUND A (Lipase from Hog Pancreas [2]; w/o COMPOUND B, 20 min): 4.1 µg/mL
- Concentration of COMPOUND A (Lipase from Hog Pancreas [2]; w/o COMPOUND B, 30 min): <0.1 µg/mL
- Concentration of COMPOUND A (Lipase from Hog Pancreas [2]; w/o COMPOUND B, 60 min): <0.1 µg/mL
- Concentration of COMPOUND A ([3]; COMPOUND B 0 μg/mL (0%), T = 15 min): 1569.58 µg/mL
- Concentration of COMPOUND A ([3]; COMPOUND B 0 μg/mL (0%), T = 60 min): 400.63 µg/mL
- Concentration of COMPOUND A ([3]; COMPOUND B 20 μg/mL (1%), T = 15 min): 2034.38 µg/mL
- Concentration of COMPOUND A ([3]; COMPOUND B 20 μg/mL (1%), T = 60 min): 1503.21 µg/mL
- Concentration of COMPOUND A ([3]; COMPOUND B 40 μg/mL (2%), T = 15 min): 2163.01 µg/mL
- Concentration of COMPOUND A ([3]; COMPOUND B 40 μg/mL (2%), T = 60 min): 1515.41 µg/mL
- Concentration of COMPOUND A ([3]; COMPOUND B 80 μg/mL (4%), T = 15 min): 1945.50 µg/mL
- Concentration of COMPOUND A ([3]; COMPOUND B 80 μg/mL (4%), T = 60 min): 1449.03 µg/mL
Structure (SMILES): CCC(CC)CC1(C(=O)Nc2ccccc2SC(=O)C(C)C)CCCCC1 [COMPOUND A, thioisobutyric acid S-(2-{[1-(2-ethyl-butyl)-cyclohexanecarbonyl]-amino}-phenyl)ester]
